Test results reported in patent US9751869B2, “LXR modulators” (BRISTOL-MYERS SQUIBB COMPANY, priority 2013, dated 2017).

Target: T1, LXRβ (Homo sapiens, UniProt P55055)
T1 construct: Co-transfection expression plasmids, comprising full-length LXRα (pCMX-h LXRα or LXRβ (pCMX-hLXRβ)); expressed in transfected cells; host or cells: CV-1 African green monkey kidney cells, transient transfection with pCMX-hLXRβ
T1 sequence (P55055 1-460): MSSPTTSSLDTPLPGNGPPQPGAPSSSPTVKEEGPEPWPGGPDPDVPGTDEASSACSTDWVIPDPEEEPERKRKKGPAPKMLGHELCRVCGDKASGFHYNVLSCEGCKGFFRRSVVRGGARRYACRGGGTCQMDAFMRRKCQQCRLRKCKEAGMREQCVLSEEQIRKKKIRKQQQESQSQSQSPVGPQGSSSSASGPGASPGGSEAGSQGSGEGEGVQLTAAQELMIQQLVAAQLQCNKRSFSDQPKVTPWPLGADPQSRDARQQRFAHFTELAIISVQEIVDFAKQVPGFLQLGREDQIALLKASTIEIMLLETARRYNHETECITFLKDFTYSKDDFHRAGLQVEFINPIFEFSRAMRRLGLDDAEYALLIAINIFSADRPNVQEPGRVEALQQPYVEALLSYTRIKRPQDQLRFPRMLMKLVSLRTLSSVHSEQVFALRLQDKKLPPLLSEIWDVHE
T1 sequence (P19793 1-462 partner): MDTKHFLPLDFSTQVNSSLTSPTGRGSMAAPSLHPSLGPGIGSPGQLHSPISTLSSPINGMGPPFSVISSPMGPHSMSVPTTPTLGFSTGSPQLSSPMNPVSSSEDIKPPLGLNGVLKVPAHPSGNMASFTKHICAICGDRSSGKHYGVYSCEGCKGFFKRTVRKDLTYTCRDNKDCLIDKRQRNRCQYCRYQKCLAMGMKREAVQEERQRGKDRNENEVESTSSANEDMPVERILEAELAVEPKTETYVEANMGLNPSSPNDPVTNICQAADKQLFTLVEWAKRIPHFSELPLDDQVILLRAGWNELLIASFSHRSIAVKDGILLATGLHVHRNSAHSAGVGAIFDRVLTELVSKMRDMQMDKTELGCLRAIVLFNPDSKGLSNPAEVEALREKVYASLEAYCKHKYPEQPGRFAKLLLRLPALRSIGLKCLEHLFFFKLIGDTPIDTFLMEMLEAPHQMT
Test: LXR/LXRE co-transfection assay (luciferase reporter) in CV-1 cells, LXRβ
Assay type: cell-based
Settings: for EC50: CV-1 cells transfected with pCMX-hLXRβ and LXREx1-Tk-Luciferase, 20 hours incubation, read-out: LXRbeta agonism EC50; for Emax: CV-1 cells, relative to maximum response of high control N-(3-((4-fluorophenyl)-(naphthalene-2-sulfonyl)amino)propyl)-2,2-dimethylpropionamide, read-out: LXRbeta % EFFICACY
Source text: To measure the ability of compounds to activate or inhibit the transcriptional activity of LXR in a cell based assay, the co-transfection assay was used. It has been shown that LXR functions as a heterodimer with RXR. For the co-transfection assay, expression plasmids for LXRα and LXRβ are introduced separately via transient transfection into mammalian cells along with a luciferase reporter plasmid that contains one copy of a DNA sequence that is bound by LXR-RXR heterodimers (LXRE; Willy, P. et. al. 1995). LXRs heterodimerize with the endogenous RXR. Treatment of transfected cells with an LXR agonist increases the transcriptional activity of LXR, which is measured by an increase in luciferase activity.
Co-transfection expression plasmids, comprising full-length LXRα (pCMX-h LXRα or LXRβ (pCMX-hLXRβ), reporter plasmid (LXREx1-Tk-Luciferase), and control (pCMX-Galactosidase expression vector) (Willey et al. Genes & Development 9 1033-1045 (1995)).
CV-1 cells were prepared 24 hours prior to the experiment by plating them into T-175 flasks or 500 cm^2 dishes in order to achieve 70-80% confluency on the day of the transfection. The number of cells to be transfected was determined by the number of plates to be screened. Each well of a 384 well plate requires 1.5×10^4 cells. DNA Transfection Reagent was prepared by mixing the required plasmid DNAs with a cationic lipid transfection reagent Transit 2020 (Mirus Bio) for CV1 by following the instructions provided with the reagents. Optimal DNA amounts were determined empirically per cell line and size of vessel to be transfected. For each T175 cm^2 flask a total of 44.4 ug for CV1 of DNA, 133 ul Transit2020 and 4.5 ml DMEM for CV1 was mixed and added. Cells were then incubated at least 5 hours at 37° C. to prepare screening cells.
Assay plates were prepared by dispensing 5 μL of compound per well of a 384 well plate to achieve final compound concentration of 10 μM and no more than 0.5% DMSO. Media was removed from the screening cells, the cells trypsinized, harvested cells by centrifugation, counted, and plated at a density of approximately 1.5×10^4 cells in the 384 well assay plate prepared above in a volume of about 95 uL. Assay plates containing both compounds and screening cells (100 μL in total volume) were incubated for 20 hours at 37° C.
After incubation with compounds, media was removed from the cells and luciferase assay reagent (30 μL/well) added. After ˜2 minutes at ambient temperature, the assay plates were read on a luminometer (PE Biosystems Northstar reader with on-board injectors, or Envision (Perkin Elmer) or equivalent).
The LXR/LXRE co-transfection assay can be used to establish the EC50/IC50 values for potency and percent activity or inhibition for efficacy. Efficacy defines the activity of a compound relative to a high control ((N-(3-((4-fluorophenyl)-(naphthalene-2-sulfonyl)amino)propyl)-2,2-dimethylpropionamide)) or a low control (DMSO/vehicle). The dose response curves are generated from a 10 point curve with concentrations differing by ½ LOG units. Each point represents the average of 4 wells of data from a 384 well plate.
The data from this assay is fitted to the following equation, from which the EC50 value may be solved: Y=Bottom+(Top−Bottom)/(1+10^((log EC50-X)*HillSlope)).
The EC50/IC50 is therefore defined as the concentration at which an agonist or antagonist elicits a response that is halfway between the Top (maximum) and Bottom (baseline) values. The EC50/IC50 values represented are the averages of at least 2 and normally 3 independent experiments. The determination of the relative efficacy or % control for an agonist is by comparison to the maximum response achieved by ((N-(3-((4-fluorophenyl)-(naphthalene-2-sulfonyl)-amino)propyl)-2,2-dimethylpropionamide) that is measured individually in each dose response experiment.
Table 1 lists LXRβ EC50 values and % efficacy measurements in the cotransfection assay for examples of this invention.

Compound	EC50	Emax
Cc1nc(-c2ccc3c(c2)OC(F)(F)O3)c(-c2cc(-c3cc(F)c(CO)c(S(C)(=O)=O)c3)ccc2-c2cc(C(F)(F)C(=O)NC3CC3)nn2C)o1 [Example 88, N-cyclopropyl-2-(5-(3-(4-(2,2-difluorobenzo[d][1,3]dioxol-5-yl)-2-methyloxazol-5-yl)-3′-fluoro-4′-(hydroxymethyl)-5′-(methylsulfonyl)biphenyl-4-yl)-1-methyl-1H-pyrazol-3-yl)-2,2-difluoroacetamide]	85 nM	49%
Cc1nc(-c2ccc(OC(F)(F)F)cc2)c(-c2cc(-c3cc(F)c(CO)c(S(C)(=O)=O)c3)ccc2-n2cc(C(N)=O)c(C3CC3)n2)o1 [Example 448, 3-cyclopropyl-1-(3′-fluoro-4′-(hydroxymethyl)-3-(2-methyl-4-(4-(trifluoromethoxy)phenyl)oxazol-5-yl)-5′-(methylsulfonyl)-[1,1′-biphenyl]-4-yl)-1H-pyrazole-4-carboxamide]	279 nM	30%
Cc1nc(-c2cc(-c3cc(F)c(CO)c(S(C)(=O)=O)c3)ccc2-n2ccc(C(F)(F)F)n2)c(-c2cc(F)c(OC(F)F)c(F)c2)o1 [Example 410, (3′-(5-(4-(difluoromethoxy)-3,5-difluorophenyl)-2-methyloxazol-4-yl)-3-fluoro-5-(methylsulfonyl)-4′-(3-(trifluoromethyl)-1H-pyrazol-1-yl)biphenyl-4-yl)methanol]	20 nM	82%
Cc1nc(-c2ccc(C(F)(F)F)cc2)c(-c2cc(-c3cc(F)c(CO)c(S(C)(=O)=O)c3)ccc2-n2cc(Cl)c(C(F)(F)F)n2)o1 [Example 438, (4′-(4-chloro-3-(trifluoromethyl)-1H-pyrazol-1-yl)-3-fluoro-3′-(2-methyl-4-(4-(trifluoromethyl)phenyl)oxazol-5-yl)-5-(methylsulfonyl)-[1,1′-biphenyl]-4-yl)methanol]	128 nM	70%
Cc1nc(-c2ccc3c(c2)OC(F)(F)O3)c(-c2cc(-c3cc(F)c(CO)c(S(C)(=O)=O)c3)ccc2-c2cc(C(C)(C)C(C)(C)O)nn2C)o1 [Example 66, 3-(5-(3-(4-(2,2-difluorobenzo[d][1,3]dioxol-5-yl)-2-methyloxazol-5-yl)-3′-fluoro-4′-(hydroxymethyl)-5′-(methylsulfonyl)biphenyl-4-yl)-1-methyl-1H-pyrazol-3-yl)-2,3-dimethylbutan-2-ol]	27 nM	27%
Cc1nc(-c2ccc3c(c2)OC(F)(F)O3)c(-c2cc(-c3cc(F)c(CO)c(S(C)(=O)=O)c3)ccc2-c2cc(C(N)=O)nn2C)o1 [Example 56, 5-(3-(4-(2,2-difluorobenzo[d][1,3]dioxol-5-yl)-2-methyloxazol-5-yl)-3′-fluoro-4′-(hydroxymethyl)-5′-(methylsulfonyl)biphenyl-4-yl)-1-methyl-1H-pyrazole-3-carboxamide]	1100 nM	35%
COc1ncc(-c2oc(C)nc2-c2cc(-c3cc(F)c(CO)c(S(C)(=O)=O)c3)ccc2-n2ccc(C(F)(F)F)n2)cc1F [Example 408, (3-fluoro-3′-(5-(5-fluoro-6-methoxypyridin-3-yl)-2-methyloxazol-4-yl)-5-(methylsulfonyl)-4′-(3-(trifluoromethyl)-1H-pyrazol-1-yl)biphenyl-4-yl)methanol]	18 nM	73%
Cc1nc(-c2ccc(OC(F)(F)F)cc2)c(-c2cc(-c3cc(F)c(CO)c(S(C)(=O)=O)c3)ccc2-n2nc(C(F)(F)F)cc2C)o1 [Example 332, (3-fluoro-4′-(5-methyl-3-(trifluoromethyl)-1H-pyrazol-1-yl)-3′-(2-methyl-4-(4-(trifluoromethoxy)phenyl)oxazol-5-yl)-5-(methylsulfonyl)biphenyl-4-yl)methanol]	35 nM	70%
Cc1nc(-c2cc(-c3cccc(S(C)(=O)=O)c3)ccc2-n2ccc(C(F)(F)F)n2)c(-c2ccc(OC(F)(F)F)cc2)o1 [Example 414, 2-methyl-4-(3′-(methylsulfonyl)-4-(3-(trifluoromethyl)-1H-pyrazol-1-yl)biphenyl-3-yl)-5-(4-(trifluoromethoxy)phenyl)oxazole]	92 nM	80%

Continued, values first:

EC50	Emax	Compound
193 nM	52%	Cc1nc(-c2ccc3c(c2)OC(F)(F)O3)c(-c2cc(-c3cccc(S(C)(=O)=O)c3)ccc2-c2cc(-c3nnco3)nn2C)o1 [Example 100, 2-(5-(3-(4-(2,2-difluorobenzo[d][1,3]dioxol-5-yl)-2-methyloxazol-5-yl)-3′-(methylsulfonyl)-[1,1′-biphenyl]-4-yl)-1-methyl-1H-pyrazol-3-yl)-1,3,4-oxadiazole]
203 nM	71%	Cc1cc(C(C)(F)F)n(-c2ccc(-c3cccc(S(C)(=O)=O)c3)cc2-n2nncc2-c2ccc(OC(F)(F)F)cc2)n1 [Example 306, 1-{4-[5-(1,1-difluoroethyl)-3-methyl-1H-pyrazol-1-yl]-3′-(methylsulfonyl)biphenyl-3-yl}-5-{4-[(trifluoromethyl)oxy]phenyl}-1H-1,2,3-triazole]
1430 nM	66%	Cn1nc(C(F)(F)C(C)(C)O)cc1-c1ccc(-c2cccc(S(C)(=O)=O)c2)cc1-n1nncc1-c1ccc2c(c1)OC(F)(F)O2 [Example 33, 1-(5-(3-(5-(2,2-difluorobenzo[d][1,3]dioxol-5-yl)-1H-1,2,3-triazol-1-yl)-3′-(methylsulfonyl)-[1,1′-biphenyl]-4-yl)-1-methyl-1H-pyrazol-3-yl)-1,1-difluoro-2-methylpropan-2-ol]
9 nM	78%	Cc1nc(-c2cc(-c3cccc(S(C)(=O)=O)c3)ccc2-n2nc(C(F)(F)F)cc2C)c(-c2ccc3c(c2)OC(F)(F)O3)o1 [Example 388, 5-(2,2-difluorobenzo[d][1,3]dioxol-5-yl)-2-methyl-4-(4-(5-methyl-3-(trifluoromethyl)-1H-pyrazol-1-yl)-3′-(methylsulfonyl)biphenyl-3-yl)oxazole]
